From ChEMBL document CHEMBL1155038, “Discovery of phosphonic diamide prodrugs and their use for the oral delivery of a series of fructose 1,6-bisphosphatase inhibitors” (J Med Chem, 2008)

What was measured:
Rattus norvegicus [1] = test: Reduction in blood glucose level in Sprague-Dawley rat assessed as time of maximum glucose lowering at 30 mg/kg, po; type: functional
Rattus norvegicus [2] = test: Reduction in blood glucose level in fasted Sprague-Dawley rat at 30 mg/kg, po relative to control; type: functional; parameters: scale not given: the % may be the effect or the level left
Rattus norvegicus [3] = test: Bioavailability in fasted Sprague-Dawley rat assessed as urinary excretion of phosphoric acid at 10 to 50 mg/kg, po after 24 hrs by HPLC relative to iv dosed phosphoric acid; type: ADME, organism-based, Urine; conditions: in vivo
Rattus norvegicus [4] = test: Reduction in blood glucose level in fasted Sprague-Dawley rat at <=10 mg/kg, iv relative to control; type: functional; parameters: scale not given: the % may be the effect or the level left
[5] = Stability in human liver S9 fractions assessed as prodrug conversion per mg of protein; type: ADME, subcellular, S9 fraction
Hepatocyte = test: Drug uptake in cryopreserved human hepatocytes per million cells at 100 uM after 60 mins; type: ADME, cell-based; conditions: 1 h

F (Rattus norvegicus [3]) | SMILES | also measured
28% | CCOC(=O)C(C)NP(=O)(NC(C)C(=O)OCC)c1ccc(-c2nc(N)sc2CC(C)C)o1 (mixture of isomers) | Time (Rattus norvegicus [1]): 2 h; Activity (Rattus norvegicus [2]): 52%
4% | CCC[C@H](NP(=O)(N[C@@H](CCC)C(=O)OCC)c1ccc(-c2nc(N)sc2C(=O)OCC)o1)C(=O)OCC | –
16% | CCCOC(=O)[C@H](C)NP(=O)(N[C@@H](C)C(=O)OCCC)c1ccc(-c2nc(N)sc2CC(C)C)o1 | –
7% | CCOC(=O)[C@@H](NP(=O)(N[C@H](C(=O)OCC)C(C)C)c1ccc(-c2nc(N)sc2CC(C)C)o1)C(C)C | –
8% | CCOC(=O)[C@H](CC)NP(=O)(N[C@@H](CC)C(=O)OCC)c1ccc(-c2nc(N)sc2CC(C)C)o1 | –
30% | CCOC(=O)c1sc(N)nc1-c1ccc(P(=O)(N[C@@H](C)C(=O)OCC)N[C@@H](C)C(=O)OCC)o1 | Time (Rattus norvegicus [1]): 3 h; Activity (Rattus norvegicus [2]): 12%
19% | CCCOC(=O)[C@H](C)NP(=O)(N[C@@H](C)C(=O)OCCC)c1ccc(-c2nc(N)sc2SCCC)o1 | –
23% | CCOC(=O)[C@H](C)NP(=O)(N[C@@H](C)C(=O)OCC)c1ccc(-c2nc(N)sc2SC)o1 | Time (Rattus norvegicus [1]): 2 h; Activity (Rattus norvegicus [2]): 38%
10% | CC(C)COC(=O)[C@H](C)NP(=O)(N[C@@H](C)C(=O)OCC(C)C)c1ccc(-c2nc(N)sc2CC(C)C)o1 | –
31% | CCOC(=O)[C@H](C)NP(=O)(N[C@@H](C)C(=O)OCC)c1ccc(-c2nc(N)sc2-c2ccccc2)o1 | –
3% | CCOC(=O)[C@H](CC(C)C)NP(=O)(N[C@@H](CC(C)C)C(=O)OCC)c1ccc(-c2nc(N)sc2CC(C)C)o1 | –
5% | CCOC(=O)c1sc(N)nc1-c1ccc(P(=O)(NC2(C(=O)OCC)CCCC2)NC2(C(=O)OCC)CCCC2)o1 | –
22% | COC(=O)[C@@H](C)NP(=O)(N[C@H](C)C(=O)OC)c1ccc(-c2nc(N)sc2CC(C)C)o1 | Time (Rattus norvegicus [1]): 2 h; Activity (Rattus norvegicus [2]): 26%
22% | CCOC(=O)[C@H](C)NP(=O)(N[C@@H](C)C(=O)OCC)c1ccc(-c2nc(N)sc2CC(C)C)o1 | Time (Rattus norvegicus [1]): 2 h; Stability [5]: 0.004 nM/min; Activity (Rattus norvegicus [2]): 59%; Drug uptake (Hepatocyte): 7 nmol
6% | CCOC(=O)c1sc(N)nc1-c1ccc(P(=O)(N[C@H](C(=O)OCC)C(C)C)N[C@H](C(=O)OCC)C(C)C)o1 | –
17% | CCCSc1sc(N)nc1-c1ccc(P(=O)(N[C@@H](C)C(=O)OC(C)C)N[C@@H](C)C(=O)OC(C)C)o1 | –
17% | CCCSc1sc(N)nc1-c1ccc(P(=O)(N[C@@H](C)C(=O)OCC)N[C@@H](C)C(=O)OCC)o1 | –
6% | CCCSc1sc(N)nc1-c1ccc(P(=O)(N[C@H](C(=O)OCC)C(C)C)N[C@H](C(=O)OCC)C(C)C)o1 | –
6% | CCCSc1sc(N)nc1-c1ccc(P(=O)(N[C@@H](CC)C(=O)OCC)N[C@@H](CC)C(=O)OCC)o1 | –
5% | CCOC(=O)c1sc(N)nc1-c1ccc(P(=O)(N[C@@H](CC)C(=O)OCC)N[C@@H](CC)C(=O)OCC)o1 | –

More lines, now with the values behind:

SMILES | F (Rattus norvegicus [3]) | also measured
CCCSc1sc(N)nc1-c1ccc(P(=O)(O)O)o1 | – | Activity (Rattus norvegicus [4]): >50%
CCCSc1sc(N)nc1-c1ccc(P(=O)(N[C@@H](COC(C)(C)C)C(=O)OC)N[C@@H](COC(C)(C)C)C(=O)OC)o1 | 9% | –
CCOC(=O)C(C)(C)NP(=O)(NC(C)(C)C(=O)OCC)c1ccc(-c2nc(N)sc2CC(C)C)o1 | 47% | Time (Rattus norvegicus [1]): 2 h; Activity (Rattus norvegicus [2]): 45%
CCOC(=O)c1sc(N)nc1-c1ccc(P(=O)(O)O)o1 | – | Activity (Rattus norvegicus [4]): >50%
CSc1sc(N)nc1-c1ccc(P(=O)(O)O)o1 | – | Activity (Rattus norvegicus [4]): >50%
CCOC(=O)C(C)(C)NP(=O)(NC(C)(C)C(=O)OCC)c1ccc(-c2nc(N)sc2-c2ccccc2)o1 | 30% | Time (Rattus norvegicus [1]): 2 h; Activity (Rattus norvegicus [2]): 25%
CCOC(=O)C1(NP(=O)(NC2(C(=O)OCC)CCCC2)c2ccc(-c3nc(N)sc3CC(C)C)o2)CCCC1 | 27% | Time (Rattus norvegicus [1]): 2 h; Activity (Rattus norvegicus [2]): 20%
COC(=O)CNP(=O)(COCCn1cnc2c(N)ncnc21)NCC(=O)OC | 2% | –
CCCSc1sc(N)nc1-c1ccc(P(=O)(NC(C)(C)C(=O)OCC)NC(C)(C)C(=O)OCC)o1 | 31% | Time (Rattus norvegicus [1]): 2 h; Activity (Rattus norvegicus [2]): 51%
CCOC(=O)C(C)(C)NP(=O)(NC(C)(C)C(=O)OCC)c1ccc(-c2nc(N)sc2SC)o1 | 45% | Time (Rattus norvegicus [1]): 2 h; Activity (Rattus norvegicus [2]): 80%
CCOC(=O)C(C)(C)NP(=O)(c1ccc(-c2nc(N)sc2CC(C)C)o1)N1CCOCC1 (configuration not stated) | 32% | –
CC(C)Cc1sc(N)nc1-c1ccc(P(=O)(N[C@@H](C)C(=O)OCC(C)(C)C)N[C@@H](C)C(=O)OCC(C)(C)C)o1 | 18% | –
CCCSc1sc(N)nc1-c1ccc(P(=O)(N[C@@H](C)C(=O)OC2CCCCCC2)N[C@@H](C)C(=O)OC2CCCCCC2)o1 | 12% | –
CCCSc1sc(N)nc1-c1ccc(P(=O)(N[C@@H](C)C(=O)OC(C)(C)C)N[C@@H](C)C(=O)OC(C)(C)C)o1 | 4% | –
CCCSc1sc(N)nc1-c1ccc(P(=O)(NC2(C(=O)OCC)CCCCC2)NC2(C(=O)OCC)CCCCC2)o1 | 1% | –
CC(C)OC(=O)[C@H](C)NP(=O)(N[C@@H](C)C(=O)OC(C)C)c1ccc(-c2nc(N)sc2-c2ccccc2)o1 | 23% | Time (Rattus norvegicus [1]): 5 h; Activity (Rattus norvegicus [2]): 19%
Nc1nc(-c2ccc(P(=O)(O)O)o2)c(-c2ccccc2)s1 | – | Activity (Rattus norvegicus [4]): >50%

SMILES | F (Rattus norvegicus [3]) | also measured
CCOC(=O)CNP(=O)(NCC(=O)OCC)c1ccc(-c2nc(N)sc2CC(C)C)o1 | 26% | Time (Rattus norvegicus [1]): 2 h; Activity (Rattus norvegicus [2]): 51%
CC(C)Cc1sc(N)nc1-c1ccc(P(=O)(N[C@@H](C)C(=O)OC(C)C)N[C@@H](C)C(=O)OC(C)C)o1 | 31% | Time (Rattus norvegicus [1]): 2 h; Activity (Rattus norvegicus [2]): 63%
CCCSc1sc(N)nc1-c1ccc(P(=O)(N[C@@H](CCC)C(=O)OCC)N[C@@H](CCC)C(=O)OCC)o1 | 6% | –
CCOC(=O)C(C)(C)NP(=O)(COCCn1cnc2c(N)ncnc21)NC(C)(C)C(=O)OCC | 4% | –
CCCSc1sc(N)nc1-c1ccc(P(=O)(NC2(C(=O)OCC)CCCC2)NC2(C(=O)OCC)CCCC2)o1 | 49% | –
CCCCOC(=O)[C@H](C)NP(=O)(N[C@@H](C)C(=O)OCCCC)c1ccc(-c2nc(N)sc2SCCC)o1 | 2% | –
CC(C)Cc1sc(N)nc1-c1ccc(P(=O)(OCOC(=O)OC(C)C)OCOC(=O)OC(C)C)o1 | 13% | –
CC(C)Cc1sc(N)nc1-c1ccc(P(=O)(N[C@@H](C)C(=O)OCc2ccccc2)N[C@@H](C)C(=O)OCc2ccccc2)o1 | 11% | –
CCOC(=O)[C@H](CSCc1ccccc1)NP(=O)(N[C@@H](CSCc1ccccc1)C(=O)OCC)c1ccc(-c2nc(N)sc2CC(C)C)o1 | 5% | –
CC(C)Cc1sc(N)nc1-c1ccc(P(=O)(OCOC(=O)C(C)(C)C)OCOC(=O)C(C)(C)C)o1 | 11% | –
CC(C)Cc1sc(N)nc1-c1ccc(P(=O)(NCC(=O)OC(C)(C)C)NCC(=O)OC(C)(C)C)o1 | 9% | –
CCOC(=O)[C@H](Cc1ccccc1)NP(=O)(N[C@@H](Cc1ccccc1)C(=O)OCC)c1ccc(-c2nc(N)sc2CC(C)C)o1 | 3% | –
CC(C)Cc1sc(N)nc1-c1ccc(P(=O)(NCC(=O)OCc2ccccc2)NCC(=O)OCc2ccccc2)o1 | 17% | –
CCOC(=O)C(C)(C)NP(=O)(c1ccc(-c2nc(N)sc2CC(C)C)o1)N1CCCC1 (configuration not stated) | 37% | –
CC(C)Cc1sc(N)nc1-c1ccc(P(=O)(O)O)o1 [MB-05032] | 2% | Activity (Rattus norvegicus [4]): >50%
CC(C)CNP(=O)(NCC(C)C)c1ccc(-c2nc(N)sc2CC(C)C)o1 | 0% | –
